Test results as given in BindingDB's records for PubMed 35247754 (China Pharmaceutical University, 2022).

Legend:
[1] = target: T1, Sentrin-specific protease 1 (Homo sapiens, UniProt Q9P0U3); assay: Inhibition of human SENP1 using AMC-tagged SUMO1 as substrate incubated for 10 mins by fluorescence based analysis
T1 sequence (Q9P0U3 whole entry): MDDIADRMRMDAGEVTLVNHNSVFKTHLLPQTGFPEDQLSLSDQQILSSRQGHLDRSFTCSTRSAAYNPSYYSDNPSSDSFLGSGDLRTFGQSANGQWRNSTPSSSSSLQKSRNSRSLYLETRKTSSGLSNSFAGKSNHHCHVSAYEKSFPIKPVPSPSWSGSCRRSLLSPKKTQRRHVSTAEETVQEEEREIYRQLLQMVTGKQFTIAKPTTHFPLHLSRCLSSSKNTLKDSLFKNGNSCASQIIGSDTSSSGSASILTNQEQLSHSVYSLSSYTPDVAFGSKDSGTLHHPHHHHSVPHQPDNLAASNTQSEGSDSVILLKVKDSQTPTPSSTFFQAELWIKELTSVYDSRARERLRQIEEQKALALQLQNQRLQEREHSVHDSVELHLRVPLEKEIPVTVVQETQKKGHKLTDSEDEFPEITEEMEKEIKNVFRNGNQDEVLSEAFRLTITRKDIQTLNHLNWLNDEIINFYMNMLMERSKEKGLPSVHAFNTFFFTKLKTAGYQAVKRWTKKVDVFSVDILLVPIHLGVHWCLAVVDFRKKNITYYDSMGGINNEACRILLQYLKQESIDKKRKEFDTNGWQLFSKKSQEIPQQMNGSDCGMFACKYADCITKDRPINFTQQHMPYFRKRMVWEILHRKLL

[2] = target: T2, Sentrin-specific protease 6 (Homo sapiens, UniProt Q9GZR1); assay: Inhibition of human SENP6 using AMC-tagged SUMO1 as substrate incubated for 10 mins by fluorescence based analysis
T2 sequence (Q9GZR1 whole entry): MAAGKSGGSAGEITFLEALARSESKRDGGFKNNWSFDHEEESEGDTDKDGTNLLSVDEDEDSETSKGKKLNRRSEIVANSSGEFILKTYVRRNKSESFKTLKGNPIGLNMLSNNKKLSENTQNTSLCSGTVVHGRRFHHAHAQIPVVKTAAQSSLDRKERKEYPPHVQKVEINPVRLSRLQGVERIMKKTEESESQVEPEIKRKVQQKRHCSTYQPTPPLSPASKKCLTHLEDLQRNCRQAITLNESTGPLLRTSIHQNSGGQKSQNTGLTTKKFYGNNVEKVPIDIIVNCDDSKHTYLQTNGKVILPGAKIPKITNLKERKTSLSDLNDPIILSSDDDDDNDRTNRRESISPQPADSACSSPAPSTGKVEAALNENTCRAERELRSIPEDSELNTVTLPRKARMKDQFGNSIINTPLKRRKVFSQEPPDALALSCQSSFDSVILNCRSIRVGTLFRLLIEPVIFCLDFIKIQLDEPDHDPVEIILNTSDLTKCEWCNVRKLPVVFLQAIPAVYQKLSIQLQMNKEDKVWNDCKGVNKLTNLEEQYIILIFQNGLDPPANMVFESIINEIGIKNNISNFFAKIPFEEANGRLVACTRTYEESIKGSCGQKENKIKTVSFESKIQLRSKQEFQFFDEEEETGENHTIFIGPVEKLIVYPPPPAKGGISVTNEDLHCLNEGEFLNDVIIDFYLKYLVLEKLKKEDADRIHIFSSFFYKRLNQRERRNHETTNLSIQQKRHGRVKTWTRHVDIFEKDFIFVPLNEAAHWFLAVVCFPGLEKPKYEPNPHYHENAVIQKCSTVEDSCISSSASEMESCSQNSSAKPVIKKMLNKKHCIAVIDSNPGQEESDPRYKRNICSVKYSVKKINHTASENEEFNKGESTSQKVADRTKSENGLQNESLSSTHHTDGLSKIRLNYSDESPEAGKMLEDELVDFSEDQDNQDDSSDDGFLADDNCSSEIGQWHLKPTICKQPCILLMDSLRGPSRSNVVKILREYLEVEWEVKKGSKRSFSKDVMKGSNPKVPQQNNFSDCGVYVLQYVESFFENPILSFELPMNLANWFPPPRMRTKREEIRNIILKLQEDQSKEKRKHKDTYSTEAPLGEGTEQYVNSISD

[3] = target: T3, Sentrin-specific protease 2 (Homo sapiens, UniProt Q9HC62); assay: Inhibition of human SENP2 using AMC-tagged SUMO1 as substrate incubated for 10 mins by fluorescence based analysis
T3 sequence (Q9HC62 whole entry): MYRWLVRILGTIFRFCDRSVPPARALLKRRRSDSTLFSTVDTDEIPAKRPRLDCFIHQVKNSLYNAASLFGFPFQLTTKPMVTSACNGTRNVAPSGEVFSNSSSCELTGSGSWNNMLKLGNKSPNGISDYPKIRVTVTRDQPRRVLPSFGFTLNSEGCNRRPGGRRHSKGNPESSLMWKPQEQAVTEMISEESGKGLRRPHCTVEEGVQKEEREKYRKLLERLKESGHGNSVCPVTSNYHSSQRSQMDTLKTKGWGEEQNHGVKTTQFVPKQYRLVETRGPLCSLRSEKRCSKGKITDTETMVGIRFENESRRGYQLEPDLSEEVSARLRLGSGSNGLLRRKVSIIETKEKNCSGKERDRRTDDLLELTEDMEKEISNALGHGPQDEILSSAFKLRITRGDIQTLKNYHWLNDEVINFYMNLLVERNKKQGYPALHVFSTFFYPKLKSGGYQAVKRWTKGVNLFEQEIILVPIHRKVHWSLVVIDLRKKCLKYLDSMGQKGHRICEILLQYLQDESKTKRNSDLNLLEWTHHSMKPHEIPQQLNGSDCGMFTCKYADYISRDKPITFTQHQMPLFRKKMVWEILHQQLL

COC1=C(N)C(=O)c2nc(-c3nc(C(=O)O)c(C)c(-c4ccc(OC)c(OC)c4O)c3N)ccc2C1=O [CHEBI:9287]
IC50 [1]: 0.52 µM | IC50 [2]: 5.2 µM | IC50 [3]: 6.9 µM
